Values quoted from earlier work, collected in US11771641B2, “Method for dyeing keratinous material by means of a premix of aminosilicone and a chromophoric compound” (Henkel AG & Co. KGaA, priority 2019, dated 2023).

Settings: 25° C.

In the case of `O=S(=O)(O)c1ccc(N=Nc2c(O)ccc3ccccc23)cc1` [Acid Orange 7, 4-[(2-hydroxy-1-naphthyl)azo]benzene sulphonate], the solubility in water is given as “more than 7 g/L”.
For `CCN(Cc1cccc(S(=O)(=O)O)c1)c1ccc(C(=C2C=CC(=[N+](CC)Cc3cccc(S(=O)(=O)O)c3)C=C2)c2ccccc2S(=O)(=O)[O-])cc1` [Acid Blue 9], the solubility in water is listed as “more than 20 % by weight”.
For `O=C(O)C1=NN(c2ccc(S(=O)(=O)O)cc2)C(=O)C1N=Nc1ccc(S(=O)(=O)O)cc1` (stereo not shown) [Acid Yellow 23, 4,5-dihydro-5-oxo-1-(4-sulfophenyl)-4-((4-sulfophenyl)azo)-1H-pyrazole-3-carboxylic acid], the “solubility in water (in words)” value is listed as “highly soluble”.
For `O=[N+]([O-])c1cc([N+](=O)[O-])c2ccc(S(=O)(=O)O)cc2c1O` [Acid Yellow 9, 8-hydroxy-5,7-dinitro-2-naphthalenesulfonic acid], the solubility in water is listed as “above 40 g/L”.
